# Results as given in ChEMBL document CHEMBL5316329, “Structure-Based Optimization of 2,4,5-Trisubstituted Pyrimidines as Potent HIV-1 Non-Nucleoside Reverse Transcriptase Inhibitors: Exploiting the Tolerant Regions of the Non-Nucleoside Reverse Transcriptase Inhibitors' Binding Pocket” (J Med Chem, 2023).
# How the values were obtained:
# [1] = tested on: Human immunodeficiency virus 1; assay: Antiviral activity against wild-type HIV-1 IIIB infected in human MT4 cells assessed as virus-induced cytopathicity treated for 5 days by MTT assay; type: functional, organism-based; details: Human immunodeficiency virus 1, IIIB, MT4, 120 h
# [2] = tested on: Human immunodeficiency virus 1; assay: Antiviral activity against NNRTI-resistant HIV-1 RES056 infected in human MT4 cells assessed as virus-induced cytopathicity treated for 5 days by MTT assay; type: functional, organism-based; details: Human immunodeficiency virus 1, RES056, MT4, 120 h
# [3] = Cytotoxicity against human MT4 cells assessed as reduction in cell viability treated for 5 days by MTT assay; type: toxicity, cell-based; details: time 5 day
# [4] = Selectivity index, ratio of CC50 for human MT4 cells to EC50 for wild-type HIV-1 IIIB infected in human MT4 cells; type: toxicity, cell-based; details: read-out: Selectivity Index
# [5] = Selectivity index, ratio of CC50 for human MT4 cells to EC50 for NNRTI-resistant HIV-1 RES056 infected in human MT4 cells; type: toxicity, cell-based; details: read-out: Selectivity Index
# [6] = molecular target: Human immunodeficiency virus type 1 reverse transcriptase (Human immunodeficiency virus 1, UniProt Q72547); assay: Inhibition of wild-type HIV-1 reverse transcriptase assessed as inhibition of biotin-dUTP incorporation
SMILES,EC50 [1],EC50 [2],CC50 at 120 h [3],selectivity ratio [4],selectivity ratio [5],IC50 [6]
Cc1cc(/C=C/C#N)cc(C)c1Oc1nc(NC2CCN(Cc3ccc(C(N)=O)cc3)CC2)ncc1-c1cccc(F)c1,6.11 nM,113 nM,11.3 µM,1850,100,163 nM
Cc1cc(/C=C/C#N)cc(C)c1Oc1nc(NC2CCN(Cc3ccc(S(N)(=O)=O)cc3)CC2)ncc1-c1ccccc1N,5.76 nM,91 nM,5.49 µM,953,60,159 nM
Cc1cc(/C=C/C#N)cc(C)c1Oc1nc(NC2CCN(Cc3ccc(S(N)(=O)=O)cc3)CC2)ncc1-c1ccc(F)cc1,4.98 nM,67.8 nM,9.63 µM,1930,142,137 nM
Cc1cc(/C=C/C#N)cc(C)c1Oc1nc(NC2CCN(Cc3ccc(S(N)(=O)=O)cc3)CC2)ncc1-c1ccccc1O,9.15 nM,172 nM,12.5 µM,1370,72,205 nM
Cc1cc(/C=C/C#N)cc(C)c1Oc1nc(NC2CCN(Cc3ccc(S(N)(=O)=O)cc3)CC2)ncc1-c1ccccc1F,3.96 nM,101 nM,10.9 µM,2760,107,130 nM
Cc1cc(/C=C/C#N)cc(C)c1Oc1nc(NC2CCN(Cc3ccc(S(C)(=O)=O)cc3)CC2)ncc1-c1ccccc1O,9.04 nM,376 nM,6.73 µM,745,18,328 nM
Cc1cc(/C=C/C#N)cc(C)c1Oc1nc(NC2CCN(Cc3ccc(C(N)=O)cc3)CC2)ncc1-c1ccc(F)cc1,5.15 nM,53.5 nM,8.23 µM,1600,154,130 nM
Cc1cc(/C=C/C#N)cc(C)c1Oc1nc(NC2CCN(Cc3ccc(S(C)(=O)=O)cc3)CC2)ncc1-c1ccccc1N,5.89 nM,109 nM,5.11 µM,868,47,178 nM
Cc1cc(/C=C/C#N)cc(C)c1Oc1nc(NC2CCN(Cc3ccc(S(C)(=O)=O)cc3)CC2)ncc1-c1cccc(O)c1,5.76 nM,68 nM,4.35 µM,756,64,164 nM
Cc1cc(/C=C/C#N)cc(C)c1Oc1nc(NC2CCN(Cc3ccc(C(N)=O)cc3)CC2)ncc1-c1ccccc1F,7.4 nM,192 nM,10.5 µM,1420,55,154 nM
Cc1cc(/C=C/C#N)cc(C)c1Oc1nc(NC2CCN(Cc3ccc(S(C)(=O)=O)cc3)CC2)ncc1-c1ccc(O)cc1,5.67 nM,50.9 nM,5.41 µM,956,106,97 nM
Cc1cc(/C=C/C#N)cc(C)c1Oc1nc(NC2CCN(Cc3ccc(C(N)=O)cc3)CC2)ncc1-c1ccccc1N,4.4 nM,49.3 nM,11.7 µM,2680,239,122 nM
Cc1cc(/C=C/C#N)cc(C)c1Oc1nc(NC2CCN(Cc3ccc(S(C)(=O)=O)cc3)CC2)ncc1-c1ccc2c(c1)OCO2,5.53 nM,59 nM,4.29 µM,776,73,161 nM
Cc1cc(/C=C/C#N)cc(C)c1Oc1nc(NC2CCN(Cc3ccc(S(C)(=O)=O)cc3)CC2)ncc1-c1cccc(N)c1,6.05 nM,52.8 nM,4.12 µM,682,78,136 nM
Cc1cc(/C=C/C#N)cc(C)c1Cc1nc(NC2CCN(Cc3ccc(C(N)=O)cc3)CC2)ncc1-c1cnc(N)nc1,6.82 nM,68.6 nM,3.07 µM,451,45,157 nM
Cc1cc(/C=C/C#N)cc(C)c1Oc1nc(NC2CCN(Cc3ccc(S(N)(=O)=O)cc3)CC2)ncc1-c1cccc(F)c1,9.55 nM,132 nM,14.2 µM,1490,108,194 nM
Cc1cc(/C=C/C#N)cc(C)c1Cc1nc(NC2CCN(Cc3ccc(S(C)(=O)=O)cc3)CC2)ncc1-c1cnc(N)nc1,4.16 nM,29.8 nM,1.73 µM,416,58,108 nM
Cc1cc(/C=C/C#N)cc(C)c1Oc1nc(NC2CCN(Cc3ccc(S(C)(=O)=O)cc3)CC2)ncc1-c1ccccc1F,6.81 nM,183 nM,11.6 µM,1710,63,161 nM
Cc1cc(/C=C/C#N)cc(C)c1Cc1nc(NC2CCN(Cc3ccc(S(N)(=O)=O)cc3)CC2)ncc1-c1cnc(N)nc1,4.44 nM,32.3 nM,2.74 µM,617,85,85 nM
Cc1cc(/C=C/C#N)cc(C)c1Oc1nc(NC2CCN(Cc3ccc(S(C)(=O)=O)cc3)CC2)ncc1-c1ccc(F)cc1,5.09 nM,101 nM,4.34 µM,853,43,145 nM
Cc1cc(/C=C/C#N)cc(C)c1Oc1nc(NC2CCN(Cc3ccc(S(C)(=O)=O)cc3)CC2)ncc1-c1cccc(F)c1,7.26 nM,123 nM,6.65 µM,916,54,228 nM
CC(=O)c1ccc(-c2cnc(NC3CCN(Cc4ccc(C(N)=O)cc4)CC3)nc2Oc2c(C)cc(/C=C/C#N)cc2C)cc1,5.16 nM,55.5 nM,11.1 µM,2160,201,175 nM
Cc1cc(/C=C/C#N)cc(C)c1Oc1nc(NC2CCN(Cc3ccc(C(N)=O)cc3)CC2)ncc1-c1ccc(O)cc1,5.66 nM,150 nM,21.3 µM,3760,142,171 nM
CC(=O)c1ccc(-c2cnc(NC3CCN(Cc4ccc(S(C)(=O)=O)cc4)CC3)nc2Oc2c(C)cc(/C=C/C#N)cc2C)cc1,5.48 nM,93.4 nM,8.46 µM,1540,91,199 nM
Cc1cc(/C=C/C#N)cc(C)c1Oc1nc(NC2CCN(Cc3ccc(C(N)=O)cc3)CC2)ncc1-c1ccccc1O,5.99 nM,123 nM,11.2 µM,1870,91,178 nM
